From PMC9947975, “Design, Synthesis, and Biological Evaluation Studies of Novel Naphthalene-Chalcone Hybrids As Antimicrobial, Anticandidal, Anticancer, and VEGFR-2 Inhibitors” (ACS Omega, 2023) come the findings set out here.

≈ marks a conversion by molar mass, not a printed value.

Series [1] has as its system healthy mouse fibroblast cell (NIH3T3). In words: MTT cytotoxicity test on healthy cells. The class given is cell-based. Particulars: 24-h treatment, means of quartet assays ± SEM. The procedure:
(§1) The MTT test was performed using 3 different cell lines for calculated IC50 values of obtained compounds. […] For this purpose, the cytotoxic effects of the compounds against the healthy mouse fibroblast cell (NIH3T3) were investigated.
(§2) The 3-(4,5-dimethylthiazol-2-yl)-2,5-diphenyltetrazolium salt reduction method, or MTT assay, is used to measure the metabolic activity of live cells. […] Doxorubicin is used as a therapeutic drug. MTT assays were carried out as previously explained.[19]

Series [2] deals with S. epidermidis (ATCC 12228). The series is described as follows: Antibacterial activity, MIC50 by resazurin fluorometric measurement. The series is classed as cell-based, Staphylococcus epidermidis. Conditions: Staphylococcus epidermidis, ATCC12228, means of triplicate assays; read-out: MIC50 S. epidermis. How it is done: (§3) Obtained compounds (2a–2j) were evaluated for antibacterial activity against Escherichia coli (E. coli) (ATCC 25922), Pseudomonas aeruginosa (P. aeruginosa) (ATCC 27853), […] (E. faecalis) (ATCC 2942), Bacillus subtilis (B. subtilis) (ATCC 6051), Staphylococcus aureus (S. aureus) (ATCC 29213), and Staphylococcus epidermidis (S. epidermidis) (ATCC 12228). MIC50 values were determined via fluorometric measurements, using resazurin solution.[13] Azithromycin was used as a standard drug in the antibacterial activity test.
(§4) The antimicrobial activity of obtained derivatives (2a–2j) was screened on six bacterial and three fungal strains according to the standard procedure of CLSI[20] as described in the previous study.[21] The antibacterial activities of the obtained compounds were screened against B. subtilis (ATCC 6051), E. coli (ATCC 25922), E. faecalis (ATCC 2942), P. aeruginosa (ATCC 27853), S. aureus (ATCC 29213), and S. epidermidis (ATCC 12228). The obtained compounds were evaluated for anticandidal activity against C. albicans (ATCC 24433), C. krusei (ATCC 6258), and C. parapsilopsis (ATCC 22019). For antibacterial activity, azithromycin was utilized as a reference drug, whereas voriconazole and fluconazole were used for anticandidal activity.
A general note: Alamar Blue is a resazurin reagent that responds to reducing activity.

Series [3] has as its system C. parapsilopsis (ATCC 22019). The series is described as follows: Anticandidal activity, MIC50 by resazurin fluorometric measurement. The class given is cell-based, Candida parapsilopsis. Conditions: Candida, ATCC22019; means of triplicate assays. The procedure: (§5) Obtained compounds (2a–2j) were evaluated for anticandidal activity against Candida albicans (C. albicans) (ATCC 24433), Candida krusei (C. krusei) (ATCC 6258), and Candida parapsilopsis (C. parapsilopsis) (ATCC 22019). MIC50 values were determined via fluorometric measurements, using resazurin solution.[13] Voriconazole and fluconazole were used as a standard drug in the anticandidal activity test. […] In general, it is seen that the 2-methoxyethyl substituent increases the anticandidal activity.
as §4

The subject of series [4] is E. faecalis (ATCC 2942). In words: Antibacterial activity, MIC50 by resazurin fluorometric measurement. The class given is cell-based, Enterococcus faecalis. Conditions: for MIC50: Enterococcus faecalis, ATCC2942, means of triplicate assays. The procedure:
as §3, §4

The subject of series [5] is A549 cell line. The series is described as follows: MTT cytotoxicity test. The class given is cell-based. Particulars: Homo sapiens, A549, 24 h, MTT, 24-h treatment, means of quartet assays ± SEM. The procedure:
as §1, §2

For series [6], the system named is HepG2 cell line. In words: MTT cytotoxicity test. The series is classed as cell-based. Particulars: Homo sapiens, 24-h treatment, means of quartet assays ± SEM. The procedure:
as §1, §2
(In general: Tetrazolium assays rely on reduction of a dye to a coloured formazan, in cell work by metabolically active cells.)

For series [7], the system named is P. aeruginosa (ATCC 27853). In words: Antibacterial activity, MIC50 by resazurin fluorometric measurement. The series is classed as cell-based. Conditions: Pseudomonas aeruginosa, ATCC27853; means of triplicate assays. The procedure: as §3, §4
Series [8] has as its system B. subtilis (ATCC 6051). Described as above. Conditions: Bacillus subtilis, ATCC6051; means of triplicate assays. The class given is cell-based. How it is done:
as §3, §4

Series [9] deals with E. coli (ATCC 25922). The series is described as above. The series is classed as cell-based. Conditions: Escherichia coli, ATCC25922; means of triplicate assays. How it is done: as §3, §4
Series [10] relates to C. krusei (ATCC 6258). In words: Anticandidal activity, MIC50 by resazurin fluorometric measurement. The class given is cell-based, Candida krusei. Conditions: Pichia kudriavzevii, ATCC6258, means of triplicate assays. The procedure:
as §5, §4

Series [11] has as its system C. albicans (ATCC 24433). The series is described as follows: Anticandidal activity, MIC50 by resazurin fluorometric measurement. The series is classed as cell-based, Candida albicans. Conditions: Candida albicans, ATCC24433, means of triplicate assays. The procedure: as §5, §4
For series [12], the system named is S. aureus (ATCC 29213). The series is described as follows: Antibacterial activity, MIC50 by resazurin fluorometric measurement. The series is classed as cell-based, Staphylococcus aureus. Particulars: Staphylococcus aureus, ATCC29213, means of triplicate assays. The procedure:
as §3, §4

For `CN1CCN(c2ccc(C(=O)C=Cc3cccc4ccccc34)cc2)CC1` [2a, 1-(4-(4-Methylpiperazin-1-yl)phenyl)-3-(naphthalen-1-yl)prop-2-en-1-one], the melting point lay within 150.2 to 152.1 °C. For the same compound, in series [1], half-maximal inhibition (IC50) was put at 61.9 ± 1.42 µM. Besides, the MIC50 in [2] was found to be 62.5 µg/mL (≈ 175 µM). The compound further returned an MIC50 in [3] of 62.5 µg/mL (≈ 175 µM). The same compound displayed an MIC50 in series [4] of 31.3 µg/mL (≈ 87.8 µM). In addition, the IC50 in [5] was > 100 µM. Also, in series [6], the IC50 was > 100 µM. The compound also yielded an MIC50 in series [7] of 62.5 µg/mL (≈ 175 µM). In addition, in series [8], the MIC50 is > 100 µg/mL. In addition, in series [9], the MIC50 is > 100 µg/mL. In series [10], this compound returned an MIC50 of 62.5 µg/mL (≈ 175 µM). In addition, the MIC50 in [11] turned out to be 31.3 µg/mL (≈ 87.8 µM). Also, the MIC50 in [12] is > 100 µg/mL.
As for `CCN1CCN(c2ccc(C(=O)C=Cc3cccc4ccccc34)cc2)CC1` [2b, 1-(4-(4-Ethylpiperazin-1-yl)phenyl)-3-(naphthalen-1-yl)prop-2-en-1-one], the melting point lay in the range of 164.6 to 166.1 °C. The IC50 in series [1] was 22.9 ± 0.76 µM. Also, in [2], the MIC50 came out at 31.3 µg/mL (≈ 84.5 µM). Further, the MIC50 in [3] is > 100 µg/mL. This compound came in with an MIC50 in [4] of 31.3 µg/mL (≈ 84.5 µM). In addition, the IC50 in series [5] is > 100 µM. Besides, the IC50 in series [6] worked out at 45.8 ± 8.4 µM. Besides, the MIC50 in series [7] stood at 62.5 µg/mL (≈ 169 µM). Besides, in series [8], the MIC50 was > 100 µg/mL. In addition, in series [9], the MIC50 is > 100 µg/mL. This compound also registered an MIC50 in series [10] of 62.5 µg/mL (≈ 169 µM). The MIC50 in [11] was found to be 15.6 µg/mL (≈ 42.1 µM). The same compound yielded an MIC50 in series [12] of 31.3 µg/mL (≈ 84.5 µM).
On to `CC(C)N1CCN(c2ccc(C(=O)C=Cc3cccc4ccccc34)cc2)CC1` [2c, 1-(4-(4-Isopropylpiperazin-1-yl)phenyl)-3-(naphthalen-1-yl)prop-2-en-1-one], for which the melting point is 146.8 to 147.5 °C. Also, in series [1], the IC50 is > 100 µM. Moreover, in series [2], the MIC50 was determined as 31.3 µg/mL (≈ 81.4 µM). Also, the MIC50 in series [3] is > 100 µg/mL. The compound further registered an MIC50 in series [4] of 31.3 µg/mL (≈ 81.4 µM). In series [5], this compound showed an IC50 of 34.3 ± 5.56 µM. In series [6], the IC50 stood at 96.1 ± 5.46 µM. This compound also had an MIC50 in series [7] of 62.5 µg/mL (≈ 163 µM). In addition, in series [8], the MIC50 is > 100 µg/mL. The MIC50 in series [9] was > 100 µg/mL. Also, in [10], the MIC50 turned out to be 62.5 µg/mL (≈ 163 µM). The compound further returned an MIC50 in [11] of 15.6 µg/mL (≈ 40.6 µM). The compound also registered an MIC50 in [12] of 62.5 µg/mL (≈ 163 µM).
Compound `C=CCN1CCN(c2ccc(C(=O)C=Cc3cccc4ccccc34)cc2)CC1` [2d, 1-(4-(4-Allylpiperazin-1-yl)phenyl)-3-(naphthalen-1-yl)prop-2-en-1-one] displayed a melting point of 120.2 to 121.9 °C. Moreover, half-maximal inhibition in [1] (IC50) required 19.8 ± 1.31 µM. The MIC50 in [2] amounted to 31.3 µg/mL (≈ 81.8 µM). Moreover, the MIC50 in series [3] is > 100 µg/mL. In series [4], this compound had an MIC50 of 15.6 µg/mL (≈ 40.8 µM). Also, in [4] (means of triplicate assays), the “MIC50 E. faecalis” value is 15.7 µg/mL (≈ 41 µM). The compound further returned an IC50 in series [5] of 71.1 ± 3.08 µM. Moreover, the IC50 in series [6] was 45.1 ± 8.12 µM. Besides, the MIC50 in series [7] came out at 62.5 µg/mL (≈ 163 µM). Further, the MIC50 in [8] is > 100 µg/mL. Also, in series [9], the MIC50 was > 100 µg/mL. Further, the MIC50 in [10] is 62.5 µg/mL (≈ 163 µM). For the same compound, in [11], the MIC50 is 31.3 µg/mL (≈ 81.8 µM). In addition, in series [12], the MIC50 was > 100 µg/mL.
The compound `COCCN1CCN(c2ccc(C(=O)C=Cc3cccc4ccccc34)cc2)CC1` [2e, 1-(4-(4-(2-Methoxyethyl)piperazin-1-yl)phenyl)-3-(naphthalen-1-yl)prop-2-en-1-one] displayed a melting point of 136.2 to 137.8 °C. For the same compound, the IC50 in [1] was 19.8 ± 0.81 µM. For the same compound, the MIC50 in [2] amounted to 31.3 µg/mL (≈ 78.1 µM). Further, the MIC50 in series [3] is > 100 µg/mL. The compound also came in with an MIC50 in [4] of 31.3 µg/mL (≈ 78.1 µM). This compound also returned an IC50 in series [5] of 20.6 ± 0.52 µM. In addition, the IC50 in [6] is 45.5 ± 2.5 µM. Besides, the MIC50 in series [7] was 62.5 µg/mL (≈ 156 µM). Also, in series [8], the MIC50 is > 100 µg/mL. For the same compound, the MIC50 in [9] is > 100 µg/mL. In [10], the MIC50 turned out to be 62.5 µg/mL (≈ 156 µM). This compound registered an MIC50 in series [11] of 15.6 µg/mL (≈ 38.9 µM). In series [12], this compound registered an MIC50 of 62.5 µg/mL (≈ 156 µM).
In turn, `CN1CCN(c2ccc(C(=O)C=Cc3ccc4ccccc4c3)cc2)CC1` [2f, 1-(4-(4-Methylpiperazin-1-yl)phenyl)-3-(naphthalen-2-yl)prop-2-en-1-one] gave a melting point of 204.5 to 206.2 °C. In [1], this compound gave an IC50 of 25.6 ± 0.26 µM. The MIC50 in series [2] amounted to 15.6 µg/mL (≈ 43.8 µM). In addition, the MIC50 in series [3] is > 100 µg/mL. The same compound registered an MIC50 in [4] of 31.3 µg/mL (≈ 87.8 µM). In series [5], 35.7 ± 0.37 µM corresponded to half-maximal inhibition (IC50). In [6], the IC50 was 29.7 ± 0.79 µM. In addition, the MIC50 in series [7] was > 100 µg/mL. Moreover, the MIC50 in series [8] was > 100 µg/mL. Also, the MIC50 in series [9] was > 100 µg/mL. In series [10], the MIC50 is > 100 µg/mL. Further, in [11], the MIC50 was found to be 62.5 µg/mL (≈ 175 µM). The MIC50 in series [12] came out at 31.3 µg/mL (≈ 87.8 µM).

As a reminder, the IC50 is the concentration needed to halve the response being measured. As a reminder, the MIC50 is an inhibitory concentration at the 50% level, which refers to growth in some studies and to a panel of isolates in others. Usually melting point stands for the temperature of the solid-liquid transition.
